In patent US20260035367A1 (Celgene Corporation, priority 2021, published 2026):
Where two headings read alike, the source gives them in different places.

What was measured:
[1] = molecular target: T1, Recombinant human PKC-theta (His-tagged 362-706) (Homo sapiens, UniProt Q04759); test: PKC-theta inhibition assay (HTRF KinEASE kit); format: biochemical; conditions: ATP 6.5 μM, STK substrate 525 nM
T1 construct: Recombinant human PKC-theta (His-tagged 362-706); His
Method in brief: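 IC50 values were from 4-parameter logistic fits of percent inhibition, based on acceptor/donor HTRF ratios over 10 semi-log compound doses. Kinase reactions, started with substrate plus ATP, ran 30 min at 25 °C in buffer supplemented with 10 mM MgCl2, 1 mM DTT and 0.1% Tween 20; detection lasted 2 h.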

[2] = molecular target: T2, Recombinant human PKC-delta (His-tagged 345-676) (Homo sapiens, UniProt Q05655); test: PKC-delta inhibition assay (HTRF KinEASE kit); format: biochemical; conditions: ratio, PKC-theta vs PKC-delta HTRF; for PKC-theta/PKC-delta selectivity (binned): binned A to G
T2 construct: PKC-delta (His-tagged 345-676); His
T2 sequence (Q05655 345-676): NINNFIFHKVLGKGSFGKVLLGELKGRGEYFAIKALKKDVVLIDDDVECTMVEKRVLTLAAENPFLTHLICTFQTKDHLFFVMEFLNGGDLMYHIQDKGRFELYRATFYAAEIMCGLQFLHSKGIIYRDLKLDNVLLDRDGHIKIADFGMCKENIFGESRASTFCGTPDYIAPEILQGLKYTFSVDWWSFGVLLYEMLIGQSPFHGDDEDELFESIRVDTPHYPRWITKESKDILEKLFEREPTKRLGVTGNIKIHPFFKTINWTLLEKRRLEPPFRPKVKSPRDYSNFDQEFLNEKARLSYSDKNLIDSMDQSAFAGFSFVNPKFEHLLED

[3] = system: IL-2 secretion by human effector memory T cells (TEM); test: Effector memory T cells IL-2 release assay (CD3/CD28 stimulation, HTRF IL-2 detection); format: cell-based; conditions: 24 h; for IC50: Homo sapiens, T-cell
Method in brief: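 IL-2 released into the supernatant was quantified by HTRF after 24 h at 37 °C in 5% CO2. The cells were stimulated primary human TEM from donor buffy coats, treated with a 10-point semi-log compound series (0.1% DMSO final, triplicates).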

[4] = binned A to H, read-out: PKC-theta HTRF pIC50 (binned) (converted)
[5] = read-out: PKC-theta HTRF pIC50 (converted)
[6] = binned A to G, read-out: PKC-theta IL2 pIC50 (binned) (converted)
[7] = read-out: PKC-theta IL2 pIC50 (converted)

T1 sequence (Q04759 362-706): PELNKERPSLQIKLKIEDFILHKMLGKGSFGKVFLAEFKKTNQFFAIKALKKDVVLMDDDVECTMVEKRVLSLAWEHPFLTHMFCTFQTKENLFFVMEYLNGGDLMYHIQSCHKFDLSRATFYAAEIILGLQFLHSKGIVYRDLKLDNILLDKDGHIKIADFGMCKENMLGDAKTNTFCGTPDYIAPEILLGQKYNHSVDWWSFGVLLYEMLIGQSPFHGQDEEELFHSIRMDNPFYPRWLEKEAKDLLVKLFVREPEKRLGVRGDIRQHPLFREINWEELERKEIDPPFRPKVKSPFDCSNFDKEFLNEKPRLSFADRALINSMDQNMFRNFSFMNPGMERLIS

SMILES | IC50 [1, 4] [nM] | IC50 [1, 5] [nM] | PKC-theta/PKC-delta selectivity [2] | PKC-theta/PKC-delta selectivity (binned) [2] | IC50 [3, 6] [nM] | IC50 [3, 7] [nM] | PKC-theta IL2 pIC50 (binned) ([3]; binned A to G)
CCC1(C)C(=O)Nc2ncc(F)c(-c3cc(C(F)(F)F)cc(N4CCNC[C@H]4C)n3)c21 (stereo partly drawn) [Example 157] | 3.16 to 10 | 7.94 | 20 | C (a ratio of between 20 and 30) | 100 to 316 | 158 | 
C[C@H]1CN(c2cc(Cl)cc(-c3ccnc4c3[C@](C)(O)C(=O)N4)n2)CCN1 (single isomer, unassigned) [Example 110] | 0.316 to 1 | 1 | 16 | D (a ratio of between 10 and 20) | 10 to 31.6 | 25.1 | 
C[C@@H]1CN(c2cc(Cl)cc(-c3ccnc4c3C(C)(O)C(=O)N4)n2)CCN1 (stereo partly drawn) [Example 73] | 3.16 to 10 | 6.31 | 11 | D (a ratio of between 10 and 20) | 100 to 316 | 126 | 
O=C1Nc2nccc(-c3cc(F)cc(N4CCNCC4)c3)c2C12CC2 [Example 34] | > 1000 | 1000 | 2 | F (a ratio of between 1 and 5) | > 1000 | 3980 | 
CC[C@H]1CN(c2cc(Cl)cc(-c3ccnc4c3[C@@](C)(OC)C(=O)N4)n2)CCN1 (single isomer, unassigned) [Example 151] | 10 to 31.6 | 12.6 | 15 | D (a ratio of between 10 and 20) |  | 126 | E (a measured pIC50 of between 6.5 and 7.0)
CC[C@@]1(O)C(=O)Nc2nccc(-c3cc(C(F)(F)F)cc(N4CCNC[C@H]4C)n3)c21 (single isomer, unassigned) [Example 166] | 1 to 3.16 | 3.16 | 6 | E (a ratio of between 5 and 10) | 10 to 31.6 | 31.6 | 
CC1(C)C(=O)Nc2nccc(-c3cc(Cl)cc(N4CCNCC4C(F)F)n3)c21 (stereo not drawn) [Example 159] | 1 to 3.16 | 2 | 9 | E (a ratio of between 5 and 10) | 100 to 316 | 100 | 
CC[C@@]1(C)C(=O)Nc2nccc(-c3cc(C(C)(F)F)cc(N4CCNC[C@H]4C)n3)c21 (single isomer, unassigned) [Example 202] | 3.16 to 10 | 3.98 | 22 | C (a ratio of between 20 and 30) | 31.6 to 100 | 50.1 | 
C[C@H]1CNCCN1c1cc(-c2ccnc3c2C(C)(C)C(=O)N3)ccn1 [Example 31] | 316 to 1000 | 501 | 1 | F (a ratio of between 1 and 5) | > 1000 | 6310 | 
O=C1Nc2nccc(-c3cc(F)cc(N4CCNCC4)c3)c2C12CCCC2 [Example 36] | 10 to 31.6 | 20 | 1 | F (a ratio of between 1 and 5) | 100 to 316 | 251 | 
C[C@H]1CCN(c2cc(C(F)(F)F)cc(-c3ccnc4c3C(C)(C)C(=O)N4)n2)CCN1 [Example 183] | 3.16 to 10 | 6.31 | 25 | C (a ratio of between 20 and 30) | 100 to 316 | 126 | 
CC1(F)CNCCN(c2cc(Cl)cc(-c3ccnc4c3[C@](C)(O)C(=O)N4)n2)C1 (single isomer, unassigned) [Example 92] | 3.16 to 10 | 7.94 | 6 | E (a ratio of between 5 and 10) | 100 to 316 | 200 | 
CC1(C)C(=O)Nc2nccc(-c3cc(N4CCNCC4)cc(C(F)(F)F)c3)c21 [Example 37] | 31.6 to 100 | 100 | 5 | F (a ratio of between 1 and 5) | > 1000 | 1260 | 
COC1(C)C(=O)Nc2nccc(-c3cc(Cl)cc(N4CCN[C@@H](C)C4)n3)c21 (stereo partly drawn) [Example 115] | 3.16 to 10 | 10 | 12 | D (a ratio of between 10 and 20) | 100 to 316 | 158 | 
O=c1[nH]c2nccc(-c3cc(N4CCNCC4)ccn3)c2[nH]1 [Example 16] | > 1000 | 6310 | 1 | G (a ratio of 0 to 1) | > 1000 | 10000 | 
CC[C@H]1CN(c2ccc(Cl)c(-c3ccnc4c3C(O)(CC)C(=O)N4)n2)CCN1 (stereo partly drawn) [Example 132] | 100 to 316 | 100 | 4 | F (a ratio of between 1 and 5) | 316 to 1000 | 1000 | 
C[C@@H]1NCCN(c2cc(C(F)(F)F)cc(-c3ccnc4c3C(C)(C)C(=O)N4)n2)[C@@H]1C [Example 169] | 3.16 to 10 | 7.94 | 16 | D (a ratio of between 10 and 20) | 31.6 to 100 | 100 | 
CC1(C)C(=O)Nc2nccc(-c3cc(C(F)(F)F)cc(N4CC5CC4CN5)n3)c21 (stereo not drawn) [Example 85] | 10 to 31.6 | 20 | 20 | D (a ratio of between 10 and 20) | 316 to 1000 | 316 | 
CCC1(C)C(=O)Nc2nccc(-c3cc(F)cc(N4CCNCC4)c3)c21 (stereo not drawn) [Example 33] | 31.6 to 100 | 50.1 | 2 | F (a ratio of between 1 and 5) | 316 to 1000 | 794 | 
CCC1(C)C(=O)Nc2nccc(-c3cc(C(F)(F)F)cc(N4CCN[C@@H](C)C4)n3)c21 (stereo partly drawn) [Example 114] | 3.16 to 10 | 5.01 | 13 | D (a ratio of between 10 and 20) | 31.6 to 100 | 63.1 | 
C[C@@H]1CNCCN1c1cc(Cl)cc(-c2ccnc3c2C(C)(C)C(=O)N3)n1 [Example 140] | 1 to 3.16 | 1.58 | 6 | E (a ratio of between 5 and 10) | 10 to 31.6 | 12.6 | 
CC1C(=O)Nc2nccc(-c3cccc(CN4CCNCC4)c3)c21 (stereo not drawn) [Example 19] | 100 to 316 | 200 | 2 | F (a ratio of between 1 and 5) | > 1000 | 2000 | 
CC[C@H]1CN(c2cc(C(F)(F)F)cc(-c3ccnc4c3[C@](C)(O)C(=O)N4)n2)CCN1 (single isomer, unassigned) [Example 90] | 0.316 to 1 | 0.794 | 17 | D (a ratio of between 10 and 20) | 10 to 31.6 | 15.8 | 
